Test results published in patent US5338725A, “Anti-aggregatory agents for platelets” (The Research Foundation of the State University of New York, priority 1992, dated 1994).
Starred links: 1 amine or outer side, 2 acyl side, 3 side chain; linkers in the order of their positions; H or OH if unused. Positions of bridges follow the written chain, without caps; N, C: chain ends. Non-standard residues stand in square brackets, D forms with d. Residues, ends and D or L forms follow the SMILES beside them. Chains are numbered I, II in the order given. Glutaryl = O=C(CCCC(=O)[*:2])[*:1]; 3Abz = Nc1cccc(C(=O)O)c1

Target: human platelet-rich plasma (Homo sapiens, UniProt P05106+P08514)
Test: In vitro inhibition of ADP-induced aggregation of human platelet-rich plasma (Coller assay)
Assay type: cell-based
Conditions: adjusted for fibrinogen concentration (ca. 30 times lower than Coller assay value; 0.1 mg/mL fibrinogen)
Description: 1. In vitro Inhibition of Aggregation of Human Platelet-Rich Plasma
Whole blood (10 ml) was collected from human volunteers and anticoagulated by addition of […] of 40% sodium citrate. Platelet-rich plasma (PRP) was prepared by low speed centrifugation (700 G for 3.5 min at 22° C.). The PRP was removed and the remaining blood was centrifuged at 2000 G for 10 min at 22 ° C. to obtain platelet poor plasma (PPP). The PRP was diluted with PPP to give a final platelet count of 300 000μL with a Coulter Acounter Model ZM (Coulter, Hialeah, Fla.). This diluted PRP (400μL) was placed in a siliconized glass cuvette equipped with a magnetic stirrer and stirred at 1200 rpm at 37° C. Various concentrations of the peptides (36μL) in TRIS buffer (0.01 M TRIS, 0.15 M NaCl, and 0.05% sodium azide, pH 7.4) was added and incubated for 3 rain before platelet aggregation was induced by addition of 54μL of 100μM ADP in HEPES buffer (0.01 M HEPES and 0.15 M NaCl, pH 7.5). The platelet aggregation was determined by a change in light transmission through the PRP on a Lumi Aggregometer 400rS (ChronoLog, Hayertown, PA). The ability of the peptides to inhibit platelet aggregation was evaluated and the IC50 was determined as the concentration of peptide required to produce 50% inhibition of the response to ADP in the presence of the TRIS buffer.
The assay system developed by Coller, which is used throughout the experiment, is different from conventional assay systems in certain aspects. First, the platelets used by Plow et al., Blood, 70, 110 (1987); and Garsky et al., Proc. Natl. Acad. Sci. U.S.A., 86, 4022 (1989) are gel-filtered to remove plasma proteins. Since the gel-filtration treatment may decrease the reactivity of the platelets, our assay avoids this step. The platelet count is adjusted by simply mixing PRP and PPP, which minimizes alterations of the platelets. Second, fibrinogen concentration in the Coller system is different from that of others. As shown in the experimental description of the assay, PRP was obtained from fresh blood and used immediately without further manipulation except for count adjustment. According to measurements obtained using this assay, such plasma contains ca. 3 mg of fibrinogen per 1 mL of plasma. On the other hand, fibrinogen concentration used in the Garsky and Plow assay system is 0.1 mg/mL. The concentration of fibrinogen affects the amount of RGD peptide required to inhibit platelet aggregation, with higher fibrinogen concentrations resulting in higher IC50 values. If there is a linear relationship between these two parameters, the IC50 values obtained from the Coller assay should be ca. 30 times larger than those obtained from the Plow et al. assay or the Garsky et al. assay. The adjusted IC50 values are presented in column 4 of Table showing the inhibitory activities of RGD peptides.
The following peptides were synthesized, and their amino acid contents were analyzed as described in procedures 3-7, above. In addition, their ability to inhibit aggregation of human platelet rich plasma was assessed as described in procedures 1 and 2, above. Their respective IC50 values, as well as their estimated IC50 adjusted to the values according the method of Plow et al., (vide supra) are listed in Table 1.

Sequence of human platelet-rich plasma (P08514 32-1039): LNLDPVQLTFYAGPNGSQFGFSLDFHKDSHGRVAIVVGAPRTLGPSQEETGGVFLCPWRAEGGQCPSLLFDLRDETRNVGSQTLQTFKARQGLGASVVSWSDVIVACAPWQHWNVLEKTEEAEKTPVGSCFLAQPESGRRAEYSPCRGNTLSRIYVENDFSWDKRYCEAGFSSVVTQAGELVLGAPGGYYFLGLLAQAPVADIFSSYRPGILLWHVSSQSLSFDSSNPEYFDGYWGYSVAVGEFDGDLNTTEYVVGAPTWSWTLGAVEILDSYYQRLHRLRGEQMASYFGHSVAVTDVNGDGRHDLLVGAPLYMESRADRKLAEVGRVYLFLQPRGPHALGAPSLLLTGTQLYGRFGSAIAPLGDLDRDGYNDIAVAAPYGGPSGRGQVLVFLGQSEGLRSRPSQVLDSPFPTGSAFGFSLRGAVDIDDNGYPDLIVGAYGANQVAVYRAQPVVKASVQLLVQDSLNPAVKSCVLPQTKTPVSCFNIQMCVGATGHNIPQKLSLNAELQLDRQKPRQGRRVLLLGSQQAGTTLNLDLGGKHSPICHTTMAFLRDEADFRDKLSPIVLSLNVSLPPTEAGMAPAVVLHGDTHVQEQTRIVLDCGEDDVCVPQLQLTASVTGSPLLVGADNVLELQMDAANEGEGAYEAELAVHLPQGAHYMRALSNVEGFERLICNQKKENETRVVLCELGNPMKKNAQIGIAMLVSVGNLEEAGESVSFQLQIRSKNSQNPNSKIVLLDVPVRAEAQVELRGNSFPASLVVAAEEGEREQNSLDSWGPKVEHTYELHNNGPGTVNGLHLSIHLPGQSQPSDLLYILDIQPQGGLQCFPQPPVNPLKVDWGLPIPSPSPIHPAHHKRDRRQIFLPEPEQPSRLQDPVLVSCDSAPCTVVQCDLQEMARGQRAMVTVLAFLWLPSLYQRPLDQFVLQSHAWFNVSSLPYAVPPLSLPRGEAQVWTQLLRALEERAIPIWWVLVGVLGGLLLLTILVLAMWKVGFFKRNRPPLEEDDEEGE
Sequence of human platelet-rich plasma (P05106 27-788): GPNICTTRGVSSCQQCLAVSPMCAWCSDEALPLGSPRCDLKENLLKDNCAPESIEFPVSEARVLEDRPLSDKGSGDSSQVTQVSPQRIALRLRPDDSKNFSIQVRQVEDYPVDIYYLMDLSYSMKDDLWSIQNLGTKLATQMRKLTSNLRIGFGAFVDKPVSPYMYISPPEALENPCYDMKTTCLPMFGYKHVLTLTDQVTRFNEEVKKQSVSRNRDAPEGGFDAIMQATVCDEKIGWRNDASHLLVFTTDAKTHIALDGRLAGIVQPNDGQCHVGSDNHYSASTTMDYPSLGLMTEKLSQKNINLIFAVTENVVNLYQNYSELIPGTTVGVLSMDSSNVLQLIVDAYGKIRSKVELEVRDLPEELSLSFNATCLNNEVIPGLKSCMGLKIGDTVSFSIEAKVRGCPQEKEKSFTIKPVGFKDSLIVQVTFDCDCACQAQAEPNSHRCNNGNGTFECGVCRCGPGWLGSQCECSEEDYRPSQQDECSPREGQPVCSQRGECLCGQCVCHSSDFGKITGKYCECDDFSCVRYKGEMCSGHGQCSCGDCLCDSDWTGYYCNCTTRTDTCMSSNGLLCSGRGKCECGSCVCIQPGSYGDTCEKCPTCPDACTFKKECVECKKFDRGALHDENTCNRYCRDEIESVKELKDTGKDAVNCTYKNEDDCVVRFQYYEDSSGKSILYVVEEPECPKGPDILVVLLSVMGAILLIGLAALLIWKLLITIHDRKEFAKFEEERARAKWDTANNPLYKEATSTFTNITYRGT

| SMILES | IC50 (M)* Estimated IC50 adjusted to the values by the method of Plow et al. |
| --- | --- |
| N=C(N)NCCC[C@H](NC(=O)CCCC(=O)N[C@@H](CCCNC(=N)N)C(=O)NCC(=O)N[C@@H](CC(=O)O)C(=O)N[C@@H](Cc1ccccc1)C(=O)O)C(=O)NCC(=O)N[C@@H](CC(=O)O)C(=O)N[C@@H](Cc1ccccc1)C(=O)O [Example 13, Pda (RGDF--OH)2] (I: RGDF-OH / II: RGDF-OH; linker I:N-II:N via Glutaryl) | 5e-07 M |
| N=C(N)NCCC[C@H](NC(=O)CN)C(=O)NCC(=O)N[C@@H](CC(=O)O)C(=O)N[C@@H](CO)C(=O)NCC(=O)Nc1cccc(C(=O)NCC(=O)N[C@@H](CCCNC(=N)N)C(=O)NCC(=O)N[C@@H](CC(=O)O)C(=O)N[C@@H](Cc2ccccc2)C(N)=O)c1 [Example 26, GRGDSG--(m)Abz--GRGDF--NH2] (H-GRGDSG[3Abz]GRGDF-NH2) | 3e-06 M |
